experiment: Inhibition of PARP1 in human A549 cells assessed as potentiation of TMZ-mediated cytotoxicity by measuring TMZ IC50 for growth inhibition at 0.5 uM by SRB assay (Rvb TMZ IC50 = 295 uM)

Question: With `C[C@]1(c2nc3c(C(N)=O)c(F)ccc3[nH]2)CCCN1` as the compound, how does the IC50 read?
Answer: Its IC50 is 338 µM.

Question: For `NC(=O)c1c(F)ccc2[nH]c(-c3ccc(N4CCOCC4)cc3)nc12`, which IC50 is on record?
Answer: Its IC50 is 130 µM.

Question: For `CCCN1CCC(c2nc3c(C(N)=O)c(F)ccc3[nH]2)CC1`, which IC50 is on record?
Answer: The IC50 was 152 µM.

Question: With `NC(=O)c1c(F)ccc2[nH]c(-c3ccc(N4CCNCC4)cc3)nc12` as the compound, how does the IC50 read?
Answer: Its IC50 is 188 µM.

Question: With `CN1CCC[C@@]1(C)c1nc2c(C(N)=O)c(F)ccc2[nH]1` as the compound, how does the IC50 read?
Answer: The IC50 was 310 µM.

Question: With `NC(=O)c1c(F)ccc2[nH]c(C3CCNCC3)nc12` as the compound, how does the IC50 read?
Answer: Its IC50 is 354 µM.

From BindingDB's records for doi:10.1016/j.bmcl.2016.06.045 (China Pharmaceutical University, 2016)
